The record followed here is patent EP1738741A2, “Use of benzylidene-1,3-thiazolidine-2,4-diones for favouring and/or inducing and/or stimulating the pigmentation of keratinic materials and/or for limiting their depigmentation and/or their bleaching” (L'ORÉAL, priority 2005, dated 2007).

Test [1] deals with activité tyrosinase de mélanocytes humains normaux. Kind of test: Tyrosinase activity of cultured normal human melanocytes after 72 h treatment (L-Dopa substrate, absorbance 450 nm). The class given is cell-based. The note with it: Melanocyte, read-out: Stimulation de l'activité tyrosinase. As for the experimental part:
Des mélanocytes épidermiques humains normaux sont cultivés (9ème passage) dans le milieu "mélanocytes growth medium M2" additionné Des compléments Promocell C24300. De pénicilline 50 UI/ml et de streptomycine 50 µg/ml (Invitrogen) dans des conditions classiques de température (37°C) sous 5% de CO2.
Le composé 5 est solubilisé dans de l'éthanol absolu (PGE2) ou dans du DMSO (inhibiteurs de 15-PGDH). Le titre final des solutions préparées est de 10 mM. Les concentrations finales testées varient de 0.1 à 10 µM (PGE2) et 1 à 10 µM (inhibiteurs de 15-PGDH).
Les essais réalisés consistent à mesurer l'effet d'inhibiteur de 15-PGDH seul ou associé à PGE2* sur l'activité globale de la tyrosinase. * PGE2 est un modulateur de pigmentation désactivé par l'enzyme 15-PGDH.
Les mélanocytes sont cultivés en plaques 96 puits jusqu'à confluence (conditions de culture décrites en a), puis le surnageant de chacun des puits est éliminé et remplacé par du milieu contenant les composés à évaluer.
Soit donc (en triplicate) l' inhibiteur de 15-PGDH seul à 1 µM et 10 µM ou pour chacune de ces premières conditions en présence de 0.1 µM, 1 µM ou 10 µM de PGE2.
Dans ces différentes conditions les cultures sont maintenues 72h00, les surnageants sont ensuite éliminés, les tapis cellulaires sont lavés avec un tampon phosphate (pH=7.2). Les cellules sont lysées avec un tampon phosphate pH=7.2 contenant 1% de triton X100.
L'activité tyrosinase de chacun des lysats est ensuite estimée contre une gamme tyrosinase de champignon (Sigma T7755).
La méthodologie mise en oeuvre utilise la L-Dopa comme substrat de réaction (45 min à 37°C), la formation de mélanine est appréciée par mesure de l'absorbance à 450 nm.
Dans ce test, deux références sont également évaluée: l'acide kojique (un inhibiteur de tyrosinase introduite à 0.1% dans le milieu de culture) et l'isobutyle méthyle xanthine (IBMX) un inhibiteur de phosphodiesterase qui limitant le catabolisme de l'AMPc contribue à l'augmentation de l'activité tyrosinase globale telle qu'appréciée dans ce test.

Another test concerns the target T1, 15-PGDH de type 1 (Homo sapiens, UniProt P15428).
T1 construct: made in house
T1 sequence (P15428 1-266): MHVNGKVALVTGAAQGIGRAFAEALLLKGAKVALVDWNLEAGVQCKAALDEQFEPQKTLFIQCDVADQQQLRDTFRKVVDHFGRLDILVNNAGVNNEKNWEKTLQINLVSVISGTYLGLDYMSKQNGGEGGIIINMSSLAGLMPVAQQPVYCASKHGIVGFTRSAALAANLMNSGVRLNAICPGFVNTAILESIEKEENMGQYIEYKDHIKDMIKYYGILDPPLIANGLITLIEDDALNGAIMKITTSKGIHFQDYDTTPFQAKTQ
Kind of test: Test on 15-PGDH type 1: spectrophotometric enzyme inhibition at 340 nm (NAD, PGE2 substrate). Format: biochemical. The method, then: L'enzyme 15-PGDH est obtenue comme décrit dans la demande FR 02/05067 déposée au nom de L'Oréal, en suspension dans un milieu adapté à une concentration de 0,3 mg/mL puis bloquée à - 80°C. Pour les besoins du test, cette suspension est décongelée et stockée dans de la glace.
Par ailleurs on prépare un tampon Tris 100 mM, pH = 7,4, contenant 0,1 mM de dithiothréitol (D5545, Sigma-Aldrich, L'isle D'Abeau Chesne, BP 701, 38297, Saint Quentin Fallavier), 1,5 mM de β-NAD (N6522, Sigma-Aldrich, L'isle D'Abeau Chesne, BP 701, 38297, Saint Quentin Fallavier), 50 µM de Prostaglandine E2 (P4172, Sigma-Aldrich, L'isle D'Abeau Chesne, BP 701, 38297, Saint Quentin Fallavier).
Dans la cuve d'un spectrophotomètre (Perkin-Elmer, Lambda 2) thermostaté à 37°C, dont la longueur d'onde de mesure est réglée à 340 nm, sont introduits 0,965 ml de ce tampon (préalablement porté à 37°C). 0,035 mL de suspension enzymatique à 37°C sont introduits dans la cuve concomitamment à l'enregistrement ( correspondant à une augmentation de la densité optique à 340 nm). La vitesse maximale de réaction est relevée.

The structures appear in SMILES notation. Read-outs that look alike come from different tables or passages of the source.

Turning to `CC(C)(C)c1ccc(Oc2ccccc2/C=C2\SC(=O)NC2=O)cc1` [Composé 4], in test [1], the activation at 1 µM was 16%.
`CC(C)(C)CC(C)(C)c1ccc(Oc2ccccc2/C=C2/SC(=O)NC2=O)cc1` [compound 15] had an inhibition at 100 µM on 15-PGDH de type 1 of 27%.
Consider `O=C1NC(=O)/C(=C/c2ccccc2Oc2ccc(F)cc2)S1` [compound 6], for which 100 µM produced 48% inhibition against 15-PGDH de type 1.
As for `CCN1C(=O)S/C(=C\c2ccccc2Oc2ccc(C(C)(C)C)cc2)C1=O` [compound 13], at 100 µM the inhibition against 15-PGDH de type 1 was 23%.
In the case of `CCCCC[C@H](O)/C=C/[C@H]1[C@H](O)CC(=O)[C@@H]1C/C=C\CCCC(=O)O` [PGE2, Prostaglandine E2], the activation at 0.1 µM in test [1] (PGE2 alone at 0,1 µM) was 3%. In test [1] (PGE2 alone at 1 uM), the activation at 1 µM turned out to be 9%. The activation at 10 µM in test [1] (PGE2 alone at 10 uM) turned out to be 15%.
The compound `CC(C)(C)c1ccc(Oc2ccccc2/C=C2\SC(=O)NC2=O)c(C(C)(C)C)c1` [compound 17] came in with an inhibition at 100 µM at 15-PGDH de type 1 of 30%.

In general, inhibition refers to the relative decrease from the control value, in per cent. A low value points to a weak effect.
